Data taken from PubChem BioAssay (NCI).
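1) Cells in 96-well plates. 2) Compound, 48 h, 5 concentrations. 3) Linear interpolation between surrounding doses. 4) Unreached endpoint = highest concentration. Abbreviation: GI50, concentration required for 50% inhibition of growth. TGI is the concentration that stops growth completely.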

Legend:
Assay in all cases: growth of human tumour cells (NCI), 48 h
NCI-H226 lung = system: NCI-H226 lung
UO-31 renal = system: UO-31 renal
SNB-75 CNS = system: SNB-75 CNS
786-0 renal = system: 786-0 renal
SW-620 colon = system: SW-620 colon
UACC-257 melanoma = system: UACC-257 melanoma
HCC-2998 colon = system: HCC-2998 colon
RPMI-8226 leukemia = system: RPMI-8226 leukemia
BT-549 breast = system: BT-549 breast
NCI/ADR-RES ovarian = system: NCI/ADR-RES ovarian

SMILES | TGI (NCI-H226 lung) [µM] | TGI (UO-31 renal) [µM] | TGI (SNB-75 CNS) [µM] | TGI (786-0 renal) [µM] | TGI (SW-620 colon) [µM] | TGI (UACC-257 melanoma) [µM] | TGI (HCC-2998 colon) [µM] | TGI (RPMI-8226 leukemia) [µM] | TGI (BT-549 breast) [µM] | TGI (NCI/ADR-RES ovarian) [µM] | GI50 (NCI-H226 lung) [µM] | GI50 (RPMI-8226 leukemia) [µM] | GI50 (UO-31 renal) [µM] | GI50 (SNB-75 CNS) [µM] | GI50 (NCI/ADR-RES ovarian) [µM] | GI50 (SW-620 colon) [µM] | GI50 (UACC-257 melanoma) [µM] | GI50 (HCC-2998 colon) [µM]
CCSC1=C(C)N(C=NC(C)(C)C)CC1 | > 100 | > 100 | > 100 | > 100 | 73.8 | > 100 | > 100 |  |  |  |  |  |  |  |  |  |  | 
[N-]=[N+]=CC(=O)OCC1SCCCS1 | > 100 | > 100 |  | > 100 | > 100 | > 100 | > 100 | > 100 | > 100 |  |  |  |  |  |  |  |  | 
CCOC(=O)C(=Cc1ccc(C(=O)OC)cc1)C(=O)OCC | 4.45 |  | 4.65 | 3.15 | 6.11 |  | 12.1 | 4.73 |  |  |  |  |  |  |  |  |  | 
CC(=O)O[C@]12CCCC1C1(O)C(O)CCCC12 (some centres not stated) | > 100 | > 100 | > 100 | > 100 | > 100 | > 100 |  | > 100 |  |  |  |  |  |  |  |  |  | 
CSC1=C(C#N)C(=O)N(c2ccc(C)cc2)C(=S)C1C#N (configuration not stated) | > 100 |  | > 100 | > 100 | > 100 | > 100 | > 100 |  | > 100 | > 100 |  |  |  |  |  |  |  | 
CCCNC(C#N)c1ccc(C(C#N)NCCC)cc1 (configuration not stated) | > 100 | > 100 |  | > 100 | > 100 | > 100 | > 100 |  | > 100 | > 100 |  |  |  |  |  |  |  | 
Oc1[nH]c2ccccc2c1N=Nc1nc(-c2ccc(Cl)c(Cl)c2)cs1 | > 100 | > 100 | > 100 | > 100 | > 100 | > 100 | > 100 |  |  | > 100 |  |  |  |  |  |  |  | 
O=[Se](=O)c1ccccc1.O=[Se](=O)c1ccccc1.[Cu] | 39.6 | 32.5 | 37.6 |  | 33.8 | 30.4 | 32.9 | 63.1 |  | 30 | 21.7 | 17 | 18 | 22 | 10.5 | 17.5 | 16 | 16.6
O=c1[nH]c(=O)n(Cc2ccccc2CO)cc1Sc1ccccc1 | 43.8 | 22.9 | > 100 | > 100 | > 100 | 72.4 | 30.8 |  |  | 81 |  |  |  |  |  |  |  | 
OC1(c2cc3ccccc3s2)CCCCC1 | > 100 | > 100 | > 100 | > 100 | > 100 | > 100 | > 100 |  | > 100 | > 100 |  |  |  |  |  |  |  | 
Cc1ccc(N2CCc3c(C)c(C#N)c4nc5ccccc5n4c32)cc1 | > 100 | > 100 | 62 | > 100 | > 100 | > 100 | > 100 |  | > 100 | > 100 |  |  |  |  |  |  |  | 
C/C(=N\NC(N)=S)C(CN(CC(C)C)CC(C)C)C(=O)Nc1ccc(C)cc1C (configuration not stated) | > 100 | > 100 | > 100 | > 100 | > 100 | > 100 | > 100 |  |  |  |  |  |  |  |  |  |  | 
c1ccc2c(c1)nc(NC1CCCC1)c1[nH]c(C3CCCC3)nc12 | 45.1 | 63 | > 100 | 20.7 | 21.2 | 11.1 | 17.6 | > 67.9 |  |  |  |  |  |  |  |  |  | 
COC(=O)/C=C/c1cc(O)c2c(c1)[C@H](C(=O)OC)[C@@H](c1ccc(O)c(O)c1)O2 | > 22.7 | > 63.5 | 0.0711 | > 100 | > 100 | > 100 | 54.6 | > 41 | 30.3 |  |  |  |  |  |  |  |  | 
Cc1cccc(C2=NC(C)(C)C(C)(C)N=C2c2cccc(C)n2)n1 | > 100 | > 100 | > 100 | > 100 | > 100 | > 100 | > 100 | > 100 |  |  |  |  |  |  |  |  |  | 
O=C1Cc2c([nH]c3ccc(Br)cc23)-c2ccccc2N1 | > 100 | > 100 | > 100 | > 100 |  | > 100 | > 100 | > 100 |  | > 100 |  |  |  |  |  |  |  | 
O=C1Nc2cc([N+](=O)[O-])ccc2NC1/C(=N\Nc1ccccc1)C(O)c1cccc([N+](=O)[O-])c1 (configuration not stated) | > 100 | > 100 | > 100 | > 100 | > 100 | > 100 | > 100 | > 100 |  |  |  |  |  |  |  |  |  | 
